Test results: patent US11154544B2, “Amide derivatives as Nav1.7 and Nav1.8 blockers” (RaQualia Pharma Inc., priority 2017, dated 2021)
“And” between values parts separate entries of the source, which are not always exact repeats. Identical values can stand only once. Like-named read-outs stand apart in the source and are kept apart here.

Legend:
Assay type in all cases: cell-based
[1] = molecular target: human Nav1.5 channels (Homo sapiens (Human), UniProt Q14524); experiment: FRET assay (FDSS); settings: HEK293 cells expressing human Nav1.5, read-out: activity (IC50) against Nav1.5
Description: (§1) This screen is used to determine the effects of compounds on human Nav1.8, and human Nav1.5 channels, utilizing the cell imaging technology by Hamamatsu Photonics's Functional Drug Screening System (FDSS). The changes of membrane potential are monitored with fluorescent membrane potential dye pair, DiSBAC2(3) and CC2-DMPE, using FRET technology.
(§2) HEK293 cells expressing human Nav1.8 channels or human Nav1.5 channels are grown in T225 flasks, in a 5% CO2 humidified incubator to about 80% confluence. Media composition of HEK293 cells expressing human Nav1.8 channels consists of Dulbecco's Modified Eagle Medium (high glucose), 10% fetal calf serum (FCS), 100 units/mL Penicillin, 100 microgram/mL Streptomycin, 200 microgram/mL Zeocin and 500 microgram/mL Geneticine. HEK293 cells expressing human Nav1.5 channels are maintained in Dulbecco's Modified Eagle Medium (high glucose) supplemented with 10% fetal calf serum (FCS), 100 units/mL Penicillin, 100 microgram/mL Streptomycin and 500 microgram/mL Geneticine.
(§3) Seed each cell lines (1.5×10^4 cells/well) into 384-well plates prior to experimentation.
(§4) Incubate at 37° C. in 5% CO2 for 24 hours.
(§5) Wash each well with buffer #1 (140 mM NaCl, 4.5 mM KCl, 10 mM D-Glucose, 2 mM CaCl2, 1 mM MgCl2, 10 mM HEPES, pH 7.4 adjusted with. NaOH) twice using plate washer.
(§6) Add 1st loading solution containing 7.5 microM CC2-DMPE and 0.06% Pluronic F-127 in buffer #1.
(§7) Incubate the plate at rt in dark for 0.5 hours.
(§8) Wash each well with buffer #2 (160 mM Choline, 10 mM D-Glucose, 0.1 mM CaCl2, 1 mM MgCl2, 1.0 mM HEPES, pH 7.4 adjusted with KOH) twice using plate washer.
(§9) Add 2nd loading solution containing 75 microM DiSBAC2(3), 2.5 mM Xylene Fast Yellow, 10 microM Deltamethrin or 100 microM veratridine and 0.02% Pluronic F-127 in buffer #2.
(§10) Add compound solutions into the assay plate and leave the plate for 30 minutes under the dark at rt.
(§11) Monitor the fluorescent membrane potentials before and after the addition of buffer #2 by FDSS.
(§12) The data is analyzed and reported as normalized ratios of intensities measured in the 465 nm and 575 nm channels. The process of calculating these ratios is performed as follows: FR=(FI465Max/FI575Min)−(FI465B/FI575B) [Math.2]
(§13) “FI465B”=the mean of fluorescence intensity as baseline (before Na^+ ligand addition) at 465 nm
(§14) “FI575B”=the mean of fluorescence intensity as baseline (before Na^+ ligand addition) at 575 nm
(§15) “FI465Max”=maximum fluorescence intensity at 465 nm after Na^+ stimulation
(§16) “FI575Min”=minimum fluorescence intensity at 575 nm after Na^+ stimulation
(§17) This analysis is performed using a computerized specific program designed for FDSS generated data. Fluorescence ratio values are plotted using XLfit to determine an IC50 value for each compound.

[2] = molecular target: human Nav1.8 channels (Homo sapiens (Human), UniProt Q9Y5Y9); experiment: FRET assay (FDSS)
Description: as §1, §2, §3, §4, §5, §6, §7, §8, §9, §10, §11, §12, §13, §14, §15, §16, §17

[3] = molecular target: T1, Nav1.7 (Homo sapiens (Human), UniProt Q15858); experiment: Electrophysiology assay, whole cell patch clamp, affinity to inactivated state; settings: read-out: activities (Ki) against Nav1.7
Description: Whole cell patch clamp recording is used to assess the efficacy or selectivity of Na channel blocker on human voltage gated sodium channels. Na channel expressing cells are dissociated by 0.05% Trypsine-EDTA or Accutase, and then seeded on cover glass for 2-24 hrs.
Manual patch clamp recordings are conducted at rt using the voltage-clamp amplifier (Axon Instruments or HEKA electronik). Electrodes are pulled with P-97 electrode puller (Sutter Instrument). The electrode resistances are 1-3 MOhm when intracellular solution is filled. Currents are lowpass filtered between 2-5 kHz and digitally sampled at 10 kHz.
The extracellular and intercellular solutions for human Nav1.7 and Nav1.5 consist of the following composition: […]
The normalized steady-state inactivation curve is constructed using 2 sec (for vehicle) or 60 sec (for drugs) conditioning pulse to different potentials followed immediately by the test pulse to −10 mV. […] The affinity of test compound to resting state of Na channels (Kresting or Kr) is assessed by depolarizing test pulse from a negative holding potential of −130 mV, where virtually all channels are in the resting state. Kr value is calculated by a conventional 1:1 binding model: Kresting(Kr)={[drug]Imax,drug/(Imax, control−Imax, drug)} [Math.8] • where Kresting (=Kr) is a dissociation constant for the resting state and [drug] is compound concentration. […]

[4] = molecular target: T1, Nav1.7; experiment: EFS-FRET assay
Description: This screen is used to determine the effects of compounds on human Nav1.7 channels, utilizing electrical field stimulation (EFS) system in 96-well plate format on FDSS (Hamamatsu Photonics) platform. The change of membrane potential is monitored with FRET dye pair, DiSBAC2(3) and PTS 18.
CHO (Chinese hamster ovary) cells expressing human Nav1.7 channels are grown in T225 flasks, in a 5% CO2 humidified incubator to about 80% confluence. Media composition consists of HAM/F^.12 with Glutamax I, 10% FCS, 100 units/mL penicillin and 100 microgram/mL hygromycin.
Seed each cell lines (1×10^5 cells/well) into 96-well plates prior to experimentation.
Incubate at 37° C. in 5% CO2, for 24 hours.
Wash each well with assay buffer (140 mM NaCl, […], 10 mM D-Glucose, 2 mM CaCl2, 1 mM MgCl2, 10 mM HEPES, pH 7.4 adjusted with NaOH) twice.
Add 1st loading solution containing 10 microM PTS18 and 0.06% Pluronic F-127 in assay buffer.
Incubate the plate at rt in dark for 1 hour. • Remove 1st loading solution and add 2nd loading solution containing 12.5 microM DiSBAC2(3), 1.25 mM Xylene Fast Yellow and 0.0075% Pluronic F-127 in assay buffer. • Place the plate under the dark at rt for 25 minutes. • Add compound solutions into the assay plate. • Set the assay plate in FDSS and place an EFS device on the plate. • Measure EFS-induced fluorescent response by FDSS.
The data are analyzed and reported as normalized ratios of intensities measured at […]. The process of calculating these ratios is performed as follows:
This analysis is performed using a computerized specific program designed for
FDSS generated data. Fluorescence ratio values are plotted using XLfit to determine an IC50 value for each, compound.

[5] = EFS-FRET, CHO cells expressing human Nav1.7, read-out: IC50 against Nav1.7
[6] = Table 1, read-out: Nav1.7 activity (IC50)

Sequence of human Nav1.8 channels (Q9Y5Y9 whole entry): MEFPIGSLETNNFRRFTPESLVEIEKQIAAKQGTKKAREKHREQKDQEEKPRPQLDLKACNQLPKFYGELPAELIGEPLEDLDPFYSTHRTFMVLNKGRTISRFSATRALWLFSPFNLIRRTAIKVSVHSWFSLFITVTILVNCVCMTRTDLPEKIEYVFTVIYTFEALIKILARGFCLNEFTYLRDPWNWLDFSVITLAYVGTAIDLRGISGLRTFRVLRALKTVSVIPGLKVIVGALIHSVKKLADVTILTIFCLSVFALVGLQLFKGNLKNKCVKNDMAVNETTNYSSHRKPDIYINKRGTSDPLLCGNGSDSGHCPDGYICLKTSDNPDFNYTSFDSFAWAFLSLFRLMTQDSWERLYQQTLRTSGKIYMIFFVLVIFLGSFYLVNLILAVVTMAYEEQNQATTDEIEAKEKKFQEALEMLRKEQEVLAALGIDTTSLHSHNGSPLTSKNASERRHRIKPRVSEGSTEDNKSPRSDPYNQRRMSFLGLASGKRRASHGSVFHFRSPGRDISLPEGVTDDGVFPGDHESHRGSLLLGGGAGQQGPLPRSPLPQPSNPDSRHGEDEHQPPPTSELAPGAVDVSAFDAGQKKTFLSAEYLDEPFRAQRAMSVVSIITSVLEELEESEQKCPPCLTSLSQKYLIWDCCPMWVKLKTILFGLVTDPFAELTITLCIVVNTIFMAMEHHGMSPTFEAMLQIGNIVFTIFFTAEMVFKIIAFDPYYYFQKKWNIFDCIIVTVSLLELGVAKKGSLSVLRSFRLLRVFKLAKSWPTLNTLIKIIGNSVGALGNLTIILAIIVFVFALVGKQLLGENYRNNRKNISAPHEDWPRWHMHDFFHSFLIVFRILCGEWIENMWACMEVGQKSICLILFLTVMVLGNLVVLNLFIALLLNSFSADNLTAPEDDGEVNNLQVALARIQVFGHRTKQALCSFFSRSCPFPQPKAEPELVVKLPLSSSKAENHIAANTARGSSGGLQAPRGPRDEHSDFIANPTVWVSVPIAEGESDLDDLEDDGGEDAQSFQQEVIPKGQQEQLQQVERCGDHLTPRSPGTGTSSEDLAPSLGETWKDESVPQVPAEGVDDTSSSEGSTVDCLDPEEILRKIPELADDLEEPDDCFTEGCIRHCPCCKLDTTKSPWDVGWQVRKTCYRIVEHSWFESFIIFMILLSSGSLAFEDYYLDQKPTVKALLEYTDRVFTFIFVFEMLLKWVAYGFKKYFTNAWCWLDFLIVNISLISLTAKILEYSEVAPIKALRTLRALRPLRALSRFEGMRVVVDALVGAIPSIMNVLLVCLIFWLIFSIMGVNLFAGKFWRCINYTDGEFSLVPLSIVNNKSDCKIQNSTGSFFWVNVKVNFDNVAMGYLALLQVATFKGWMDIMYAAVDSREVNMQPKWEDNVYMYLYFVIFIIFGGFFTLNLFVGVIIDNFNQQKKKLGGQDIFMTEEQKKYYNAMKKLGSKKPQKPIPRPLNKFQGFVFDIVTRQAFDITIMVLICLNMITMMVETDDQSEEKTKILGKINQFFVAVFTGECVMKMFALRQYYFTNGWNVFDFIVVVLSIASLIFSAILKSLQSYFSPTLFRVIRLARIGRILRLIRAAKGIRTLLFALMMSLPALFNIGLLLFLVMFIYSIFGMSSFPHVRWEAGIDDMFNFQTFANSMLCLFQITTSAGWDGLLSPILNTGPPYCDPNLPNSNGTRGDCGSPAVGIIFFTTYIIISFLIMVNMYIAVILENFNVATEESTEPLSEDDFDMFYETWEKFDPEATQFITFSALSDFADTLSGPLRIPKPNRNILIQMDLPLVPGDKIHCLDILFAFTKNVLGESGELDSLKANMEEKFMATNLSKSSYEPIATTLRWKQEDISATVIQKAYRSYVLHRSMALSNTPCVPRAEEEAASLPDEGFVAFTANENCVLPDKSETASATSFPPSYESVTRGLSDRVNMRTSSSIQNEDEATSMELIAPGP
T1 sequence (Q15858 whole entry): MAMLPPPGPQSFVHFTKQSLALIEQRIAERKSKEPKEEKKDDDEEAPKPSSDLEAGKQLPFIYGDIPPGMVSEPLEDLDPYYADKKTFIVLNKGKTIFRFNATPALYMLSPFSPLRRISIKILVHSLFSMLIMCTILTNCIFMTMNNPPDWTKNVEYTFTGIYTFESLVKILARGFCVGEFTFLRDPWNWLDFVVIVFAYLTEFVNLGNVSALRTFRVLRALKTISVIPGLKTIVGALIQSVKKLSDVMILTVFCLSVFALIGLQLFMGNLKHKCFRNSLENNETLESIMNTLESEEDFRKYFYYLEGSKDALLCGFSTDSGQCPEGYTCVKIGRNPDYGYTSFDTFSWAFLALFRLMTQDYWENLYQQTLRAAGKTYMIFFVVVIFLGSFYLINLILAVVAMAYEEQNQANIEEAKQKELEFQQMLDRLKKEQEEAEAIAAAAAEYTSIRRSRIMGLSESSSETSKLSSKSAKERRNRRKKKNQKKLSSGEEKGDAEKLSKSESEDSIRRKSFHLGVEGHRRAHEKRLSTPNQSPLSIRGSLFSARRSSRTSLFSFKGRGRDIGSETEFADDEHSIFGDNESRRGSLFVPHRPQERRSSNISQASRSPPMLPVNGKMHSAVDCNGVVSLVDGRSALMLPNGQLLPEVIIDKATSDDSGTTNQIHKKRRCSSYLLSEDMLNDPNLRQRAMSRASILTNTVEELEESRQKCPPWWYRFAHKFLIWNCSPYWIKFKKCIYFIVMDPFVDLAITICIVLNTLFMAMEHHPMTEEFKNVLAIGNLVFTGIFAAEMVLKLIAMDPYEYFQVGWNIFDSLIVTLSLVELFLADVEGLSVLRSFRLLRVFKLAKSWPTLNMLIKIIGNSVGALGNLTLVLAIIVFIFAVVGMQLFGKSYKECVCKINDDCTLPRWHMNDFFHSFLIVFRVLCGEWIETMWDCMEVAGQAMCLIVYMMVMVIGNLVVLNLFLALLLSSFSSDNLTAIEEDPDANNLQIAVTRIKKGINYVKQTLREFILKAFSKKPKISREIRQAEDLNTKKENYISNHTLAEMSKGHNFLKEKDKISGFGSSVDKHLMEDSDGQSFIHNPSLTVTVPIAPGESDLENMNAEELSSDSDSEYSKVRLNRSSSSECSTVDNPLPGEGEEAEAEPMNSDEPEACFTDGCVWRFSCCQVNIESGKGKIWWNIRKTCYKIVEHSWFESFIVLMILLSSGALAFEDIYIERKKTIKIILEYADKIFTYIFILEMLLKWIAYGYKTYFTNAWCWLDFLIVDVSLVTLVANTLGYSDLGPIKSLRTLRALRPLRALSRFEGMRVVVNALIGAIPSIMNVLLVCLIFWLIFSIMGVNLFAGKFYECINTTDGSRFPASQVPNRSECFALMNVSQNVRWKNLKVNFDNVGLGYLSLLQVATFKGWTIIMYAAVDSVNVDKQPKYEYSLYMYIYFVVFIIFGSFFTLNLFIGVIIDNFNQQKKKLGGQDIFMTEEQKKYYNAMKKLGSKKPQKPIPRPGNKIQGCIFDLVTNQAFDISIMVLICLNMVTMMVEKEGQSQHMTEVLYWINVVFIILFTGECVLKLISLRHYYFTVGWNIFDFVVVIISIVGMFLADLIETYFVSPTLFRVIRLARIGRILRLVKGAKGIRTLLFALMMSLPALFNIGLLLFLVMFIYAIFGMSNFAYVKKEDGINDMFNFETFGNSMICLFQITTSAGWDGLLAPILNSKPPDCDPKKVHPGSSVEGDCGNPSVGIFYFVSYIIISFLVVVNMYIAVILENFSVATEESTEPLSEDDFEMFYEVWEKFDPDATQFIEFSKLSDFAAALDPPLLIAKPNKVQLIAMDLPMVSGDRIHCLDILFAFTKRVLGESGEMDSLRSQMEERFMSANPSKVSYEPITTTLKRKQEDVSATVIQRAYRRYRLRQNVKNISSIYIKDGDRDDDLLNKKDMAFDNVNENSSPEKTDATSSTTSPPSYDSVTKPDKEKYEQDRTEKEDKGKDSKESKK

IC50 ([2]; FRET, HEK293 cells expressing human Nav1.8, read-out: IC50 against Nav1.8) [nM] | Ki [3] [nM] | IC50 [4, 5] | activity against Nav1.8 [2] | Structure (SMILES) | IC50 [1] [nM] | IC50 [4, 6] [nM]
650 |  |  |  | CC(CNC(=O)c1ccnc(NC(=O)C2CC2)c1)Oc1ccc(C(F)(F)F)cc1 (centres unmarked) [Example 1, 2-(cyclopropanecarboxamido)-N-(2-(4-(trifluoromethyl)phenoxy)propyl)isonicotinamide] | > 30000 | 
 | 960 | < 500 nM |  | CCC(=O)Nc1cc(C(=O)NCCNc2ncc(C(F)(F)F)cc2Cl)ccn1 [Example 3] |  | 
 | 520 | < 500 nM |  | CC(=O)Nc1cc(C(=O)NCCNc2ncc(C(F)(F)F)cc2Cl)cc(C)n1 [Example 4] |  | 
 |  | 370 nM and < 500 nM | good activity | CC(C)C(=O)Nc1cc(C(=O)NCCOc2ncc(C(F)(F)F)cc2Cl)ccn1 [Example 13] |  | 370
 |  | 190 nM and < 500 nM | good activity | Cc1cc(C(=O)NCCOc2ncc(C(F)(F)F)cc2Cl)cc(NC(=O)C(C)C)n1 [Example 35] |  | 190
 |  | < 500 nM |  | CC(=O)Nc1cc(C(=O)NCCOc2ccc(OC(F)(F)F)c(F)c2)ccn1 [Example 154] |  | 

Structure (SMILES) | IC50 ([2]; FRET, HEK293 cells expressing human Nav1.8, read-out: IC50 against Nav1.8) [nM] | Ki [3] [nM] | IC50 [4, 5] | activity against Nav1.8 [2] | IC50 [1] [nM] | IC50 [4, 6] [nM]
O=C(NCCOc1ncc(C(F)(F)F)cc1Cl)c1ncccc1Cl [No. 1-3, reference compound] |  |  | > 3000 nM |  |  | > 3000
O=C(NCCOc1ncc(C(F)(F)F)cc1Cl)c1cccnc1C(F)(F)F [No. 1-63, reference compound] |  |  | > 3000 nM |  |  | > 3000
